Assays:
[1] = species: Mus musculus; experiment: Anticonvulsant activity was determined in mouse maximal electroshock seizure threshold (MEST) model at 1 hour post dose.; assay type: functional
[2] = species: Rattus norvegicus; experiment: Anticonvulsant activity was determined in rat maximal electroshock seizure threshold (MEST) model at 4 hour post dose.; assay type: functional
[3] = molecular target: SB-204269 binding site; experiment: Inhibition of [3H]SB-204269 binding in rat forebrain; assay type: tissue-based
[4] = species: Mus musculus; experiment: Anticonvulsant activity was determined in mouse maximal electroshock seizure threshold (MEST) model at 1 hour post dose; assay type: functional
[5] = species: Rattus norvegicus; experiment: Anticonvulsant activity was determined in rat maximal electroshock seizure threshold (MEST) model at 4 hour post dose; assay type: functional
[6] = molecular target: SB-204269 binding site; experiment: Binding affinity for [3H]SB-204269 in rat forebrain; assay type: tissue-based

Compound | Increase [1] | Log Ki [3] | also measured
COc1cc(C(C)(C)C)ccc1C(=O)Nc1cccc2c1CCN(C)C2 | 140% | -7.7 | Increase [2]: 330%
COc1ccc(Cl)cc1C(=O)Nc1ccc2c(c1)CN(C)CC2 | 4% | -7.2 | 
COc1cc(C(C)(C)C)ccc1C(=O)Nc1ccc2c(c1)CCN(C)C2 | 4% | -6.4 | 
COc1ccccc1C(=O)Nc1cccc2c1CCN(C)C2 |  | -5.8 | 
COc1cc(N)c(Cl)cc1C(=O)Nc1cccc2c1CCN(C)C2 | 25% | -7.8 | 
COc1cc(C(C)(C)C)c(Cl)cc1C(=O)Nc1cccc2c1CCN(C)C2 |  | -6.9 | 
COc1cc([N+](=O)[O-])c(Cl)cc1C(=O)Nc1cccc2c1CCN(C)C2 |  | -6.8 | 
COc1cc(Cl)ccc1C(=O)Nc1cccc2c1CCN(C)C2 |  | -6.1 | 
CCc1cc(OC)c(C(=O)Nc2cccc3c2CCN(C)C3)cc1Cl | 100% | -7.9 | 
COc1cc(C)c(Cl)cc1C(=O)Nc1cccc2c1CCN(C)C2 | 50% | -7.6 | 
COc1cc(C(C)(C)C)ccc1C(=O)Nc1ccc2c(c1)CN(C)CC2 | 130% | -7.6 | Increase [2]: 110%
CC(=O)c1ccc2c(c1)[C@H](NC(=O)c1ccc(F)cc1)[C@@H](O)C(C)(C)O2 [CARABERSAT] |  |  | Increase [4]: 100%; Increase [5]: 570%; Log Ki [6]: -7.3
CN1CCc2c(cccc2NC(=O)c2cccc(Cl)c2)C1 |  | < -5 | 
CN1CCc2c(cccc2NC(=O)c2ccc(C(C)(C)C)cc2)C1 |  | -6 | 
CCc1ccc(C(=O)Nc2cccc3c2CCN(C)C3)c(OC)c1 | 60% | -7.3 | 
COc1ccc(Cl)cc1C(=O)Nc1cccc2c1CCN(C)C2 | 20% | -7 | 
COc1c(Cl)cc(Cl)cc1C(=O)Nc1cccc2c1CCN(C)C2 |  | -5.4 | 
COc1cc(N)c(Cl)cc1C(=O)Nc1cccc2c1CN(C)CC2 |  | -6.1 | 

From ChEMBL document CHEMBL1131352, “Identification of a series of 1,2,3,4-tetrahydroisoquinolinyl-benzamides with potential anticonvulsant activity” (Bioorg Med Chem Lett, 1998)
